Source: patent US11220661B2, “Compositions comprising taurate surfactants and methods of using the compositions” (Colgate-Palmolive Company, priority 2016, dated 2022)

Columns and labels:
[1] = tested on: HaCaT cells; assay: Cell migration assay (scratch gap closure); assay type: cell-based, human; settings: 0.01% by weight in DMEM culture medium, 24 hours, vs control medium
Experimental: Three different culture medium samples were prepared. A control medium that included a Dulbecco's modified Eagle's medium (DMEM) comprising actives of 10% Fetal Bovine Serum and 1% Penicillin Streptomycin; a taurine medium that was the same as the control medium but included 0.01% by weight Taurine; and a taurate medium that was the same as the control medium but included 0.01% by weight Sodium Methyl Oleoyl Taurate. To determine the effect of both Taurine (0.01%) and Sodium Methyl Oleoyl Taurate (0.01%) on the cellular repair function, in vitro experiments were conducted using HaCaT cells. HaCaT cells are a spontaneously transformed aneuploid immortal keratinocyte cell line from adult human skin. Three sample wells of the HaCaT cells were each grown until 100% confluent. After that, each well was scratched with a 1000 microliter (ul) tip (to create the gap) and washed twice with 1 milliliter (ml) of phosphate buffered saline (“PBS”) to eliminate dead floating cells. Following that, each one of the three sample wells were treated with 1 ml of one of the three culture medium samples: one with the control medium, one with the taurine (0.01%) medium, and one with the sodium methyl oleoyl taurate (0.01%) medium. Then, initial measurements of gap distance were taken using a microscope (OLYMPUS IX71). […]

[2] = tested on: proinflammatory cytokines IL-1a, IL-6, IL-8, TNF-a in 3D EpiDerm skin models; assay: Multiple inflammation biomarker assay on SDS-irritated 3D EpiDerm skin models; settings: for cytokine levels (IL-1a, IL-6, IL-8, TNF-a; FIGS. 2A-2D, % control): 0.02 wt. % SDS-irritated skin samples, 30 ul of 1% test solution in PBS topically for 1 hour, then 24 hours incubation, Milliplex assay
Experimental: To document the effect on skin inflammation, in vitro experiments using 3D EpiDerm skin models (SIT 200 skin irritation model, MatTek Corporation, Ashland, Mass.) were conducted. An irritant chemical, sodium dodecyl sulfate (0.02 wt. % SDS), was used to induce skin irritation in in vitro skin samples. After the inducement of skin irritation, the in vitro skin samples were each treated topically with one of two 30 ul test solutions (either a 1% Taurine in PBS solution or a 1% Sodium methyl oleoyl taurate in PBS solution) for 1 hour in a tissue culture incubator (37 degree C., 5% CO2). Following the incubation, the skin samples were washed with PBS and placed in a culture medium and further incubated for 24 hours. Tissue was harvested and homogenized for a multiple inflammation biomarker assay, testing levels of IL-1, IL-6, IL-8 and TNF-a. Biomarkers were analyzed by a Milliplex assay kit. (Millipore, Billerica, Mass.).
The irritant chemical, sodium dodecyl sulfate (SDS), that was used is commonly used as a […] control in irritation/inflammation assays on MatTek tissue. The multiple biomarker assay of Example 2 measured the levels of proinflammatory cytokines, including IL-1a, IL-6, IL-8, TNF-a, in one assay to evaluate the level of skin irritation/inflammation. The more cytokines released, the greater the irritation and/or inflammation potential.

[3] = tested on: IL-1a in 3D EpiDerm skin models; assay: Irritation biomarker (IL-1a) assay on 3D EpiDerm skin models; assay type: cell-based, human; settings: 6.8% in combar base, p-value of 0.03 vs combar base
Description: Two separate combar samples were formulated, one with taurine and one with sodium methyl oleoyl taurate. Both the taurine and sodium methyl oleoyl taurate were formulated at the same molar concentration in the combar samples. The weight concentrations of taurine and methyl oleoyl taurate in their respective combar bases was as follows:
Taurine combar sample—2% Taurine (obtained from Qianjiang Yongan Pharmaceutical, Wuhan, China), 98% Combar;
Taurate combar sample—6.8% Sodium Methyl Oleoyl Taurate (obtained from Rhodia Solvay Group), 93.2% Combar.
Samples for testing were made by mixing the taurine combar and taurate combar in PBS (1% weight by volume combar base of each of the taurine combar and sodium methyl oleoyl taurate combar in PBS).
Separate In vitro skin samples were treated topically with 30 ul each of the taurine combar and taurate combar test samples for 1 hour in a tissue culture incubator. […] Tissue was harvested and homogenized for a IL-1a assay. IL-1a levels were analyzed using a Human IL-1 alpha/IL-1F1 Quantikine ELISA kit available from R&D Systems, Minneapolis, Minn. Among cytokines released along the inflammation pathway, IL-1a is recognized as a prominent irritation biomarker. The more IL-1a that is released, the greater is the irritation potential.
Thus, the combar base was used as a negative control on the MatTek tissue.

| Compound | cell migration rate (% reduction in gap distance, FIG. 1) [1] | cytokine levels (IL-1a, IL-6, IL-8, TNF-a; FIGS. 2A-2D, % control) [2] | irritation potential of the combar base [3] | expression of cytokines IL-1a, IL-6, IL-8 and TNF-a by the irritant ([2]; 0.02 wt. % SDS on 3D EpiDerm) |
| --- | --- | --- | --- | --- |
| CCCCCCCC/C=C\CCCCCCCC(=O)N(C)CCS(=O)(=O)[O-].[Na+] [sodium methyl oleoyl taurate] | comparable enhancement in cell migration rate | suppressed | significantly reduced | – |
| CCCCCCCCCCCCOS(=O)(=O)[O-].[Na+] [SDS, Sodium Dodecyl Sulfate] | – | – | – | induced |
| NCCS(=O)(=O)O [taurine, 2-aminoethylsulphonic acid] | comparable enhancement in cell migration rate | suppressed | – | – |
